Values quoted from earlier work in US20260272852A1, “COAGULATION PATHWAY AND NICOTINAMIDE-ADENINE DINUCLEOTIDE PATHWAY MODULATING COMPOSITIONS AND METHODS OF THEIR USE” (L'OREAL, priority 2021, published 2026).

Legend:
[1] = tested on: hyperpigmentation spots, fine lines, and wrinkles; settings: moisturizer containing 5% niacinamide, half of face, 12 weeks
[2] = topical 4% niacinamide treatment
[3] = tested on: suction induced petechia formation; settings: 0.5% vitamin K1 cream twice daily for one week, ten healthy individuals
[4] = tested on: 585-nm pulsed dye laser-induced purpuras

In the case of NC(=O)c1cccnc1 [niacinamide], the “Hyperpigmentation spots, fine lines, and wrinkles, treated side compared to control side” value [1] is listed as “significant improvements” and the “Treated patients with good-to-excellent results” value [2] is listed as 44%.
For CC1=C(C/C=C(\C)CCC[C@H](C)CCC[C@H](C)CCCC(C)C)C(=O)c2ccccc2C1=O [vitamin K1, phylloquinone], the “Influence on suction induced petechia formation” value [3] is given as “no influence”.
For vitamin K, the “Effect of pretreatment on 585-nm pulsed dye laser-induced purpuras” value [4] is listed as “no effect”.
